Experimental data: BindingDB's records for doi:10.7270/Q2N014XN (Srmlsc, 2007)
Counter-ions that a name gives are not always drawn.

What follows are compounds tested against T1, Diphosphomevalonate decarboxylase (Streptococcus pneumoniae serotype 2 (strain D39 / NCTC 7466), UniProt A0A0H2ZN59) (assay: diphosphomevalonate decarboxylase inhibition dose curves – biochemical, PK/LDH-coupled NADH fluorescence, hexokinase coupling counter-screen, dose response (AID 550)). Settings: not given.
T1 sequence (A0A0H2ZN59 whole entry): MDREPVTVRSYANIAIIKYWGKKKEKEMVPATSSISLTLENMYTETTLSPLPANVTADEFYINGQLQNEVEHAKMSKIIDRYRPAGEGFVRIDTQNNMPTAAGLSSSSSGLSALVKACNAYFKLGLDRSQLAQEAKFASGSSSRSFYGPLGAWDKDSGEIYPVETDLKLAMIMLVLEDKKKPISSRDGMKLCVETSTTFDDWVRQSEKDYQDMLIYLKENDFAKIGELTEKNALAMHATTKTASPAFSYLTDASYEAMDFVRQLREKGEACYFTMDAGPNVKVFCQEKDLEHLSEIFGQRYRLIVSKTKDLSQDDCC
Work on `Cc1c(C(=O)NCc2ccc3c(c2)OCO3)sc2nc(-c3ccccc3)cn12` [3-methyl-6-phenyl-N-piperonyl-imidazo[2,1-b]thiazole-2-carboxamide] yielded an IC50 greater than 10000 µM.
Compound `CC(C)(CO)NC(=O)C(c1ccccc1)c1ccccc1` [MLS000062471] has an IC50 greater than 10000 µM.
For `CCn1c(SCC(=O)Nc2cccc(C(C)=O)c2)nnc1C(C)C` [MLS000073205], the IC50 was greater than 10000 µM.
`CN(C)CCSc1nnc(-c2ccccc2)o1` was tested, and the IC50 was greater than 10000 µM.
`COc1ccc(-n2c(NC(=O)c3ccco3)c(C#N)c3nc4ccccc4nc32)cc1` [MLS000079925] was tested, and the IC50 was 16.9 µM.
With `COCCOC(=O)c1c(C)oc2ccc(NS(=O)(=O)c3ccc(F)cc3)cc12` [2-methoxyethyl 5-[(4-fluorophenyl)sulfonylamino]-2-methyl-1-benzofuran-3-carboxylate] the IC50 was greater than 10000 µM.
Compound `COC(=O)c1cc(Cl)c(NS(=O)(=O)c2ccccc2)cc1OC` [4-(benzenesulfonamido)-5-chloro-2-methoxy-benzoic acid methyl ester] has an IC50 of 32.2 µM.
In the case of `Cn1c(N2CCOCC2)nc(-c2ccccc2)c1-c1ccccc1` [4-(1-methyl-4,5-diphenyl-2-imidazolyl)morpholine], the IC50 is reported as 40.8 µM.
`COc1ccc(-c2cc(C(F)(F)F)nc(SCCC(=O)N3CCN4CCCC4C3)n2)cc1` (stereo unspecified) [1-(3,4,6,7,8,8a-hexahydro-1H-pyrrolo[1,2-a]pyrazin-2-yl)-3-[4-(4-methoxyphenyl)-6-(trifluoromethyl)pyrimidin-2-yl]sulfanyl-propan-1-one] showed an IC50 of 376 µM.
`CCOC(=O)c1cc2c(=O)n(C)c3ccccc3c2s1` [4-keto-5-methyl-thieno[3,2-c]quinoline-2-carboxylic acid ethyl ester] showed an IC50 greater than 10000 µM.
Work on `CCOC(=O)C1=C(C)N=C(C)C(C(=O)OCC)C1c1cc2ccc(C)cc2[nH]c1=O` (stereo unspecified) [diethyl 2,6-dimethyl-4-(7-methyl-2-oxidanylidene-1H-quinolin-3-yl)-1,4-dihydropyridine-3,5-dicarboxylate] yielded an IC50 of 150 µM.
`O=C(CN1c2cccc3cccc(c23)S1(=O)=O)N1CCOCC1` [2-[2-(4-morpholinyl)-2-oxoethyl]-2H-naphtho[1,8-cd]isothiazole 1,1-dioxide] was tested, and the IC50 was 21.9 µM.
With `COC(=O)Cn1c(=NC(=O)CSC(C)=O)sc2ccccc21` [2-[2-[2-(acetylthio)-1-oxoethyl]imino-1,3-benzothiazol-3-yl]acetic acid methyl ester] the IC50 was greater than 10000 µM.
Work on `O=C(CSc1nnnn1Cc1ccccc1)NCCc1ccccc1` [2-(1-Benzyl-1H-tetrazol-5-ylsulfanyl)-N-phenethyl-acetamide] yielded an IC50 greater than 10000 µM.
In the case of `Cc1ccc(NC(=O)N(CCCN2CCOCC2)Cc2cc3cc4c(cc3[nH]c2=O)OCO4)cc1` [3-(4-methylphenyl)-1-(3-morpholin-4-ylpropyl)-1-[(6-oxidanylidene-5H-[1,3]dioxolo[4,5-g]quinolin-7-yl)methyl]urea], the IC50 is reported as 45.6 µM.
Work on `O=C(CN1CCCC1)N1CCCc2c1c(=O)oc1ccc(OCc3ccccc3)cc21` [4-[1-oxo-2-(1-pyrrolidinyl)ethyl]-9-phenylmethoxy-2,3-dihydro-1H-[1]benzopyrano[3,4-b]pyridin-5-one] yielded an IC50 of 24.7 µM.
`Cc1cc(=O)oc2ccc(OCC(=O)N3CCC(C)CC3)cc12` [4-methyl-6-[2-(4-methyl-1-piperidinyl)-2-oxoethoxy]-1-benzopyran-2-one] gave an IC50 of 213 µM.
`CCOc1ccccc1OCC(=O)Nc1ccc(N2CCCCC2)cc1` [2-(2-ethoxyphenoxy)-N-(4-piperidin-1-ylphenyl)acetamide] was tested, and the IC50 was greater than 10000 µM.
With `Cc1ccc(S(=O)(=O)c2cc3c(=O)n4ccccc4nc3n(CC3CCCO3)c2=N)cc1C` (stereo unspecified) [2-azanylidene-3-(3,4-dimethylphenyl)sulfonyl-1-(oxolan-2-ylmethyl)dipyrido[1,2-d:3',4'-f]pyrimidin-5-one] the IC50 was 43.6 µM.
Compound `CCc1ccc(S(=O)(=O)NCc2cn3ccsc3n2)s1` [5-ethyl-N-(6-imidazo[2,1-b]thiazolylmethyl)-2-thiophenesulfonamide] has an IC50 greater than 10000 µM.
`CCOC(=O)c1c(C)[nH]c(C(=O)COC(=O)c2ccccc2NC(=O)c2ccco2)c1C` was tested, and the IC50 was 62.8 µM.
Compound `Cn1c(=O)[nH]c(=O)c2c1nc(NC1CCCCC1)n2Cc1ccccc1` [MLS000083828] has an IC50 greater than 10000 µM.
`O=S(=O)(Nc1ccc(C(F)(F)F)cc1)c1c[nH]cn1` gave an IC50 greater than 10000 µM.
Work on `COC(=O)c1cc2occc2n1CC(=O)Nc1ccc(OC)c(OC)c1OC` [4-[2-keto-2-(2,3,4-trimethoxyanilino)ethyl]furo[3,2-b]pyrrole-5-carboxylic acid methyl ester] yielded an IC50 greater than 10000 µM.
`O=C(c1cc2nc(-c3ccc(F)cc3)cc(C(F)(F)F)n2n1)N1CCCC1` [MLS000109312] showed an IC50 of 53 µM.
Work on `c1ccc(N2CCN(c3cnccn3)CC2)nc1` [2-(4-pyridin-2-ylpiperazin-1-yl)pyrazine] yielded an IC50 greater than 10000 µM.
Work on `N#C/C(=C\C1CC=CCC1)c1nc2ccccc2[nH]1` (stereo unspecified) [(E)-2-(1H-benzimidazol-2-yl)-3-cyclohex-3-en-1-ylprop-2-enenitrile] yielded an IC50 greater than 10000 µM.
In the case of `O=C(Nc1ccc(-c2nc3ncccc3o2)cc1)c1ccco1` [MLS000062759], the IC50 is reported as 34.9 µM.
For `Cc1ccc(S(=O)(=O)NCCN2CCOCC2)cc1C` [3,4-Dimethyl-N-(2-morpholin-4-yl-ethyl)-benzenesulfonamide], the IC50 was greater than 10000 µM.
Compound `CCN(CC)CCOC(=O)c1ccc(NC=C2C(=O)CC(C)(C)CC2=O)cc1` has an IC50 greater than 10000 µM.
For `Cc1cnc(SCCc2ccncc2)nc1C` [4,5-dimethyl-2-(2-pyridin-4-ylethylsulfanyl)pyrimidine;hydrochloride], the IC50 was greater than 10000 µM.
In the case of `COc1cc2c(cc1NC(=O)c1ccc3c(c1)OCO3)oc1ccccc12` [MLS000088875], the IC50 is reported as greater than 10000 µM.
For `COc1ccccc1-c1nnc2sc(-c3ccc(N(C)C)cc3)nn12` [4-[3-(2-methoxyphenyl)-[1,2,4]triazolo[3,4-b][1,3,4]thiadiazol-6-yl]-N,N-dimethyl-aniline], the IC50 was 16.3 µM.
`CN(C)C(=O)N1CCC(C(=O)NCc2cccs2)CC1` [1-N,1-N-dimethyl-4-N-(thiophen-2-ylmethyl)piperidine-1,4-dicarboxamide] showed an IC50 greater than 10000 µM.
`COc1cc2c(C#N)c(N3CCN(c4ccccc4OC)CC3)nc(N)c2c(N)n1` [1,8-diamino-6-methoxy-3-(4-(2-methoxyphenyl)piperazin-1-yl)-2,7-naphthyridine-4-carbonitrile] showed an IC50 greater than 10000 µM.
`O=C(Nc1ccc2nc(-c3cccs3)c(-c3cccs3)nc2c1)N1CCOCC1` [MLS000050299] gave an IC50 of 25.8 µM.
In the case of `COC(=O)c1[nH]c2cccc(OC)c2c1NC(=O)CCN1CCN(c2ccccc2OC)CC1` [MLS000040529], the IC50 is reported as 27.4 µM.
`O=c1c2ccccc2sn1-c1ccc(S(=O)(=O)N2CCCC2)cc1` [2-(4-pyrrolidin-1-ylsulfonylphenyl)-1,2-benzothiazol-3-one] was tested, and the IC50 was 2.65 µM.
With `CC(C)c1ccc(-c2nc3c([nH]2)c(=O)n(C)c(=O)n3C)cc1` [1,3-dimethyl-8-(4-propan-2-ylphenyl)-7H-purine-2,6-dione] the IC50 was 21.8 µM.
Compound `COc1cc(NC(=O)c2ccc3c(c2)OCO3)c2ncccc2c1` [MLS000061736] has an IC50 of 52 µM.
`COc1ccc(-c2ccc(-c3nnc(-c4ccncc4)o3)cc2)cc1` [2-[4-(4-methoxyphenyl)phenyl]-5-(4-pyridyl)-1,3,4-oxadiazole] gave an IC50 of 123 µM.
Work on `CCOC(=O)c1c(CC(C)C)csc1NC=O` [2-formamido-4-(2-methylpropyl)-3-thiophenecarboxylic acid ethyl ester] yielded an IC50 greater than 10000 µM.
`CC(C)CNC(=O)COc1ccc2c3c(c(=O)oc2c1)CCC3` [MLS000054673] showed an IC50 of 65.4 µM.
Work on `COC(=O)c1ccccc1NC(=O)c1ccc2c(c1)C(=O)N(Cc1ccco1)C2=O` [2-[[2-(2-furfuryl)-1,3-diketo-isoindoline-5-carbonyl]amino]benzoic acid methyl ester] yielded an IC50 of 53.9 µM.
`COc1ccc(-c2nnc(Nc3nc4c(OC)cccc4s3)o2)c(OC)c1` [5-(2,4-dimethoxyphenyl)-N-(4-methoxy-1,3-benzothiazol-2-yl)-1,3,4-oxadiazol-2-amine] was tested, and the IC50 was 6.62 µM.
In the case of `CC(C)c1nc2oc3c(NCc4ccccn4)ncnc3c2c2c1COC(C)(C)C2` [MLS000084035], the IC50 is reported as 813 µM.
With `COc1cccc(Cn2c(=S)[nH]c3ccc(N4CCOCC4)cc3c2=O)c1` the IC50 was 36.2 µM.
`CCCCC(=O)Nc1ccc(C(N)=O)cc1` [4-(1-oxopentylamino)benzamide] was tested, and the IC50 was greater than 10000 µM.
Compound `FC(F)(F)c1cc(-c2ccco2)nc(-n2nnc3ccccc32)n1` [1-[4-(2-furanyl)-6-(trifluoromethyl)-2-pyrimidinyl]benzotriazole] has an IC50 of 11.2 µM.
In the case of `N#Cc1c(C(F)(F)F)cc(-c2ccco2)nc1SCc1ccncc1` [6-(2-furanyl)-2-(pyridin-4-ylmethylthio)-4-(trifluoromethyl)-3-pyridinecarbonitrile], the IC50 is reported as greater than 10000 µM.
Compound `CCOC(=O)C(Cc1ccccc1)C(=O)Nc1nccs1` (stereo unspecified) [2-benzyl-3-keto-3-(thiazol-2-ylamino)propionic acid ethyl ester] has an IC50 greater than 10000 µM.
For `Cc1cc(-c2ccccc2)nc(N2CCC(C(=O)NC(C)C)CC2)n1` [1-(4-Methyl-6-phenyl-pyrimidin-2-yl)-piperidine-4-carboxylic acid isopropylamide], the IC50 was 69.3 µM.

Same assay, conditions: inactive by the depositor's call
`CCN(CC)c1ccc(C=Nn2c(=S)[nH]nc(C)c2=O)cc1` [4-[[4-(diethylamino)phenyl]methylideneamino]-6-methyl-3-sulfanylidene-2H-1,2,4-triazin-5-one] gave an IC50 of 20.2 µM.
In the case of `CCn1nc(-c2ccccc2)nc2c(=O)n(C)c(=O)nc1-2` [1-Ethyl-6-methyl-3-phenyl-1H-pyrimido[5,4-e][1,2,4]triazine-5,7-dione], the IC50 is reported as 20 µM.
With `Clc1cccc(-c2ccc(C=Nn3cnnc3)o2)c1` [1-[5-(3-chlorophenyl)-2-furanyl]-N-(1,2,4-triazol-4-yl)methanimine] the IC50 was 101 µM.
`Cc1cc(C)c2c(=O)n(CC(=O)NCCCN3CCN(c4ccccc4F)CC3)sc2n1` [2-(4,6-dimethyl-3-oxidanylidene-[1,2]thiazolo[5,4-b]pyridin-2-yl)-N-[3-[4-(2-fluorophenyl)piperazin-1-yl]propyl]ethanamide] was tested, and the IC50 was 36.6 µM.
